# Target: Met (Homo sapiens, UniProt P08581)
# Assay: MET Luminescence-based Enzyme Assay (Kinase-Glo)
# Format: biochemical
# Design: Sf9 insect cell culture expressing the kinase domain of human Met; 6x Histidine tag (TEV-cleavable) (cleaved yes); made in house; host or cells: Sf9 insect cells
# From the text: Homogeneous luminescence-based inhibitor screening assays were developed for c-Abl, MET, AurA, and PDK1 kinases (among others). Each of these assays made use of an ATP depletion assay (Kinase-Glo™, Promega Corporation, Madison, Wis.) to quantitate kinase activity. The Kinase-Glo™ format uses a thermostable luciferase to generate luminescent signal from ATP remaining in solution following the kinase reaction. The luminescent signal is inversely correlated with the amount of kinase activity.
# Dose response was analyzed using the equation: y=min+{(max−min)/(1 +10^[compound]-logIC50)}, where y is the observed initial slope, max=the slope in the absence of inhibitor, min=the slope at infinite inhibitor, and the IC50 is the [compound] that corresponds to ½ the total observed amplitude (Amplitude=max−min).
# The cell pellets produced from half of a 12 L Sf9 insect cell culture expressing the kinase domain of human Met were resuspended in a buffer containing 50 mM Tris-HCl pH 7.7 and 250 mM NaCl, in a volume of approximately 40 ml per 1 L of original culture. One tablet of Roche Complete, EDTA-free protease inhibitor cocktail (Cat# 1873580) was added per 1 L of original culture. The suspension was stirred for 1 hour at 4° C. Debris was removed by centrifugation for 30 minutes at 39,800×g at 4° C. The supernatant was decanted into a 500 ml beaker and 10 ml of 50% slurry of Qiagen Ni-NTA Agarose (Cat# 30250) that had been pre-equilibrated in 50 mM Tris-HCl pH 7.8, […], 10% Glycerol, 10 mM Imidazole, and 10 mM Methionine, were added and stirred for 30 minutes at 4° C. The sample was then poured into a drip column at 4° C. and washed with 10 column volumes of 50 mM Tris-HCl pH 7.8, 500 mM NaCl, 10% Glycerol, 10 mM Imidazole, and 10 mM Methionine. The protein was eluted using a step gradient with two column volumes each of the same buffer containing 50 mM, 200 mM, and 500 mM Imidazole, sequentially. The 6× Histidine tag was cleaved overnight using 40 units of TEV protease (Invitrogen Cat# 10127017) per 1 mg of protein while dialyzing in 50 mM Tris-HCl pH 7.8, 500 mM NaCl, 10% Glycerol, 10 mM Imidazole, and 10 mM Methionine at 4° C. The 6× Histidine tag was removed by passing the sample over a Pharmacia 5 ml IMAC column (Cat# 17-0409-01) charged with Nickel and equilibrated in 50 mM Tris-HCl pH 7.8, 500 mM NaCl, 10% Glycerol, 10 mM Imidazole, and 10 mM Methionine. The cleaved protein bound to the Nickel column at a low affinity and was eluted with a step gradient. The step gradient was run with 15% and then 80% of the B-side (A-side=50 mM Tris-HCl pH 7.8, 500 mM NaCl, 10% Glycerol, 10 mM Imidazole, and 10 mM Methionine; B-side=50 mM Tris-HCl pH 7.8, 500 mM NaCl, 10% Glycerol, 500 mM Imidazole, and 10 mM Methionine) for 4 column volumes each. The Met protein eluted in the first step (15%), whereas the non-cleaved Met and the cleaved Histidine tag eluted in the 80% fractions. The 15% fractions were pooled after SDS-PAGE gel analysis confirmed the presence of cleaved Met; further purification was done by gel filtration chromatography on an Amersham Biosciences HiLoad 16/60 Superdex 200 prep grade (Cat# 17-1069-01) equilibrated in 50 mM Tris-HCl pH 8.5, 150 mM NaCl, ˜10% Glycerol and 5 mM DTT. The cleanest fractions were combined and concentrated to ˜10.4 mg/ml by centrifugation in an Amicon Ultra-15 10,000 Da MWCO centrifugal filter unit (Cat# UFC901024).
# MET Luminescence-based Enzyme Assay
# Materials: Poly Glu-Tyr (4:1) substrate (Sigma Cat# P-0275), ATP (Sigma Cat#A-3377, FW=551), HEPES buffer, pH 7.5, Bovine serum albumin (BSA) (Roche 92423420), MgCl2, Staurosporine (Streptomyces sp. Sigma Cat#85660-1MG), white Costar 384-well flat-bottom plate (VWR Cat#29444-088). MET kinase (see below), Kinase-Glo™ (Promega Cat#V6712).
# Stock Solutions: 10 mg/ml poly Glu-Tyr in water, stored at −20° C.; 100 mM HEPES buffer, pH 7.5 (5 ml 1M stock+45 ml miliQH2O); 10 mM ATP (5.51 mg/ml in dH2O) stored at −20° C. […]
# Sequence of Met (P08581 1078-1345 limits assumed): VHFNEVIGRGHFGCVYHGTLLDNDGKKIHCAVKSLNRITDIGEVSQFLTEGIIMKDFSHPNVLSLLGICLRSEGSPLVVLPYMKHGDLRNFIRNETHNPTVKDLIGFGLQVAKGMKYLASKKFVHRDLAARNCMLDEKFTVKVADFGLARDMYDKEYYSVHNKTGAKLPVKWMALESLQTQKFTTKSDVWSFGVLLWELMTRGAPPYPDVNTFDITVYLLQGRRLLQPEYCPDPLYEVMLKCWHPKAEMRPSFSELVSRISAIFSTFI
row,Structure (SMILES),IC50 [nM]
1,"O=C(Nc1nc2[nH]nc(-n3cncc3-c3c(Cl)cccc3Cl)c2s1)C1CC1 [Cyclopropanecarboxylic acid {3-[5-(2,6-dichloro-phenyl)-imidazol-1-yl]-1H-pyrazolo[3,4-d]thiazol-5-yl}-amide]",1000 to 10000
2,"O=C(Nc1nc2[nH]nc(-n3cncc3-c3ccccn3)c2s1)C1CC1 [Cyclopropanecarboxylic acid [3-(5-pyridin-2-yl-imidazol-1-yl)-1H-pyrazolo[3,4-d]thiazol-5-yl]-amide]",> 10000
3,"O=C(Nc1nc2[nH]nc(-n3cncc3-c3ccccc3)c2s1)C1CC1 [Cyclopropanecarboxylic acid [3-(5-phenyl-imidazol-1-yl)-1H-pyrazolo[3,4-d]thiazol-5-yl]-amide]",> 10000
4,"O=C(Nc1nc2[nH]nc(-n3cncc3-c3ccc4ccccc4c3)c2s1)C1CC1 [Cyclopropanecarboxylic acid [3-(5-naphthalen-2-yl-imidazol-1-yl)-1H-pyrazolo[3,4-d]thiazol-5-yl]-amide]",1000 to 10000
5,"O=C(Nc1nc2[nH]nc(-n3cncc3-c3cccc(F)c3F)c2s1)C1CC1 [Cyclopropanecarboxylic acid {3-[5-(2,3-difluoro-phenyl)-imidazol-1-yl]-1H-pyrazolo[3,4-d]thiazol-5-yl}-amide]",1000 to 10000
6,"O=C(Nc1nc2[nH]nc(-n3cncc3-c3c(Cl)ccc(Cl)c3Cl)c2s1)C1CC1 [Cyclopropanecarboxylic acid {3-[5-(2,3,6-trichloro-phenyl)-imidazol-1-yl]-1H-pyrazolo[3,4-d]thiazol-5-yl}-amide]",1000 to 10000
7,"O=C(Nc1cc[nH]n1)Nc1nc2[nH]nc(-n3cncc3-c3ccccc3Cl)c2s1 [1-{3-[5-(2-Chloro-phenyl)-imidazol-1-yl]-1H-pyrazolo[3,4-d]thiazol-5-yl}-3-(1H-pyrazol-3-yl)-urea]",> 10000
8,"O=C(Nc1nc2[nH]nc(-n3cncc3-c3cc(Cl)cc(Cl)c3Cl)c2s1)C1CC1 [Cyclopropanecarboxylic acid {3-[5-(2,3,5-trichloro-phenyl)-imidazol-1-yl]-1H-pyrazolo[3,4-d]thiazol-5-yl}-amide]",1000 to 10000

# Further lines, results first:
row,IC50 [nM],Structure (SMILES)
1,> 10000,"CS(=O)(=O)c1ccc(F)cc1-c1cncn1-c1n[nH]c2nc(NC(=O)C3CC3)sc12 [Cyclopropanecarboxylic acid {3-[5-(5-fluoro-2-methanesulfonyl-phenyl)-imidazol-1-yl]-1H-pyrazolo[3,4-d]thiazol-5-yl}-amide]"
2,100 to 1000,"O=C(Nc1nc2[nH]nc(-n3cncc3-c3ccccc3Cl)c2s1)C1CC1 [Cyclopropanecarboxylic acid {3-[5-(2-chloro-phenyl)-imidazol-1-yl]-1H-pyrazolo[3,4-d]thiazol-5-yl}-amide]"
3,100 to 1000,"COc1ccc2nc(Cl)c(-c3cncn3-c3n[nH]c4nc(NC(=O)C5CC5)sc34)cc2c1 [Cyclopropanecarboxylic acid {3-[5-(2-chloro-6-methoxy-quinolin-3-yl)-imidazol-1-yl]-1H-pyrazolo[3,4-d]thiazol-5-yl}-amide]"
4,100 to 1000,"NC(=O)COc1ccc(-c2cncn2-c2n[nH]c3nc(NC(=O)C4CC4)sc23)c(Cl)c1 [Cyclopropanecarboxylic acid {3-[5-(4-carbamoylmethoxy-2-chloro-phenyl)-imidazol-1-yl]-1H-pyrazolo[3,4-d]thiazol-5-yl}-amide]"

# Source: patent US20070173488A1, “Pyrazolothiazole Protein Kinase Modulators” (SGX Pharmaceuticals, Inc., priority 2005, published 2007)
